The structures appear in SMILES notation. Where a name gives a salt, the structure may show the parent alone.

Assay in one data set: not given
The note with it: human, microsomes.
As for `CCCCCCCC(=O)N[C@H](CN1CCCC1)[C@H](OC(=O)c1ccccc1)c1ccc2c(c1)OCCO2` [I-a Hemitartrate salt, (1R,2R)-1-(2,3-dihydrobenzo[b][1,4]dioxin-6-yl)-2-octanamido-3-(pyrrolidin-1-yl)propyl benzoate], the “HLM stability (half-life, minutes)” value was under 30 min.

For `CCCCCCCC(=O)N[C@H](CN1CCCC1)[C@H](OC(C)=O)c1ccc2c(c1)OCCO2` [I-e Hemitartrate salt, (1R,2R)-1-(2,3-dihydrobenzo[b][1,4]dioxin-6-yl)-2-octanamido-3-(pyrrolidin-1-yl)propyl acetate], the “HLM stability (half-life, minutes)” value was under 30 min. As for `CCCCCCCC(=O)N[C@H](CN1CCCC1)[C@H](OC(=O)CC)c1ccc2c(c1)OCCO2` [I-f Hemitartrate salt, (1R,2R)-1-(2,3-dihydrobenzo[b][1,4]dioxin-6-yl)-2-octanamido-3-(pyrrolidin-1-yl)propyl propionate], the “HLM stability (half-life, minutes)” value was under 30 min.

A further data set is described as follows: in vitro. The note with it: human, microsomes, pH 7.4.
`CCCCCCCC(=O)N[C@H](CN1CCCC1)[C@H](OC(=O)Cc1ccccc1)c1ccc2c(c1)OCCO2` [I-b Hemitartrate salt, (1R,2R)-1-(2,3-dihydrobenzo[b][1,4]dioxin-6-yl)-2-octanamido-3-(pyrrolidin-1-yl)propyl 2-phenylacetate]: the half-life was under 30 min. In turn, `CCCCCCCC(=O)N[C@H](CN1CCCC1)[C@H](OC(=O)c1ccccc1N)c1ccc2c(c1)OCCO2` [I-v, (1R,2R)-1-(2,3-dihydrobenzo[b][1,4]dioxin-6-yl)-2-octanamido-3-(pyrrolidin-1-yl)propyl 2-aminobenzoate] gave a half-life of under 30 min.

Another data set can be described thus: Metabolic stability of prodrugs in human liver microsomes. The note with it: pH 7.4.
`CCCCCCCC(=O)N[C@H](CN1CCCC1)[C@H](O)c1ccc2c(c1)OCCO2` [Eliglustat, N-((1R, 2R)-1-(2,3-dihydrobenzo[b] [1,4]dioxin-6-yl)-1-hydroxy-3-(pyrrolidin-1-yl)propan-2-yl) octanamide]: the half-life was determined as 30 min. Turning to `CCCCCCCC(=O)N[C@H](CN1CCCC1)[C@H](OC(=O)CCCCC)c1ccc2c(c1)OCCO2` [I-aa, (1R,2R)-1-(2,3-dihydrobenzo[b][1,4]dioxin-6-yl)-2-octanamido-3-(pyrrolidin-1-yl)propyl hexanoate], the half-life was under 30 min. Regarding `CCCCCCCC(=O)N[C@H](CN1CCCC1)[C@H](OC(=O)c1cccnc1)c1ccc2c(c1)OCCO2` [I-c Hemitartrate salt, (1R,2R)-1-(2,3-dihydrobenzo[b][1,4]dioxin-6-yl)-2-octanamido-3-(pyrrolidin-1-yl)propyl nicotinate], the half-life is under 30 min. As to `CCCCCCCC(=O)N[C@H](CN1CCCC1)[C@H](OC(=O)c1ccccc1O)c1ccc2c(c1)OCCO2` [I-d Hemitartrate salt, (1R,2R)-1-(2,3-dihydrobenzo[b][1,4]dioxin-6-yl)-2-octanamido-3-(pyrrolidin-1-yl)propyl 2-hydroxybenzoate], the half-life is under 30 min. For `CCCCCCCC(=O)N[C@H](CN1CCCC1)[C@H](OC(=O)C(C)C)c1ccc2c(c1)OCCO2` [I-g Hemitartrate salt, (1R,2R)-1-(2,3-dihydrobenzo[b][1,4]dioxin-6-yl)-2-octanamido-3-(pyrrolidin-1-yl)propyl isobutyrate], the half-life is under 30 min. Take `CCCCCCCC(=O)N[C@H](CN1CCCC1)[C@H](OC(=O)C(C)(C)C)c1ccc2c(c1)OCCO2` [I-h Hemitartrate salt, (1R,2R)-1-(2,3-dihydrobenzo[b][1,4]dioxin-6-yl)-2-octanamido-3-(pyrrolidin-1-yl)propyl pivalate]: the half-life is under 30 min. On the same count and under the same terms, next, `CCCCCCCC(=O)N[C@H](CN1CCCC1)[C@H](OC(=O)CCCCCCC)c1ccc2c(c1)OCCO2` [I-i Hemitartrate salt, (1R,2R)-1-(2,3-dihydrobenzo[b][1,4]dioxin-6-yl)-2-octanamido-3-(pyrrolidin-1-yl)propyl octanoate]: under 30 min; `CCCCCCCCCC(=O)O[C@H](c1ccc2c(c1)OCCO2)[C@@H](CN1CCCC1)NC(=O)CCCCCCC` [I-j Hemitartrate salt, (1R,2R)-1-(2,3-dihydrobenzo[b][1,4]dioxin-6-yl)-2-octanamido-3-(pyrrolidin-1-yl)propyl decanoate]: 63 min; `CCCCCCCCCCCC(=O)O[C@H](c1ccc2c(c1)OCCO2)[C@@H](CN1CCCC1)NC(=O)CCCCCCC` [I-k Hemitartrate salt, (1R,2R)-1-(2,3-dihydrobenzo[b][1,4]dioxin-6-yl)-2-octanamido-3-(pyrrolidin-1-yl)propyl dodecanoate]: 70 min. On to `CCCCCCCC(=O)N[C@H](CN1CCCC1)[C@H](OC(=O)[C@H](N)C(C)C)c1ccc2c(c1)OCCO2` [I-l Hydrochloride salt], for which the half-life is under 30 min. With `CCCCCCCC(=O)N[C@H](CN1CCCC1)[C@H](OC(=O)[C@@H](N)C(C)C)c1ccc2c(c1)OCCO2` [I-m Hemitartrate salt], the half-life was under 30 min. Turning to `CCCCCCCC(=O)N[C@H](CN1CCCC1)[C@H](OC(=O)N(CC)CC)c1ccc2c(c1)OCCO2` [I-n Hemitartrate salt, (1R,2R)-1-(2,3-dihydrobenzo[b][1,4]dioxin-6-yl)-2-octanamido-3-(pyrrolidin-1-yl)propyl diethylcarbamate], the half-life was under 30 min. `CCCCCCCC(=O)N[C@H](CN1CCCC1)[C@H](OC(=O)CCC(=O)O)c1ccc2c(c1)OCCO2` [I-o, 4-((1R,2R)-1-(2,3-dihydrobenzo[b][1,4]dioxin-6-yl)-2-octanamido-3-(pyrrolidin-1-yl)propoxy)-4-oxobutanoic acid]: the half-life is over 90 min. Consider `CCCCCCCC(=O)N[C@H](CN1CCCC1)[C@H](OC(=O)OCC)c1ccc2c(c1)OCCO2` [I-p Hemitartrate salt, (1R,2R)-1-(2,3-dihydrobenzo[b][1,4]dioxin-6-yl)-2-octanamido-3-(pyrrolidin-1-yl)propyl ethyl carbonate], for which the half-life is under 30 min. Still for that read-out and setting: as for `CCCCCCCC(=O)N[C@H](CN1CCCC1)[C@H](OC(=O)N1CCC(N2CCCCC2)CC1)c1ccc2c(c1)OCCO2` [I-q, (1R,2R)-1-(2,3-dihydrobenzo[b][1,4]dioxin-6-yl)-2-octanamido-3-(pyrrolidin-1-yl)propyl [1,4′-bipiperidine]-1′-carboxylate], the figure is under 30 min. As to `CCCCCCCC(=O)N[C@H](CN1CCCC1)[C@H](OC(=O)N(C)C)c1ccc2c(c1)OCCO2` [I-r, (1R,2R)-1-(2,3-dihydrobenzo[b][1,4]dioxin-6-yl)-2-octanamido-3-(pyrrolidin-1-yl)propyl dimethylcarbamate], the half-life was under 30 min. With `CCCCCCCC(=O)N[C@H](CN1CCCC1)[C@H](OC(=O)/C=C/C(=O)O)c1ccc2c(c1)OCCO2` [I-s, (E)-4-((1R,2R)-1-(2,3-dihydrobenzo[b][1,4]dioxin-6-yl)-2-octanamido-3-(pyrrolidin-1-yl)propoxy)-4-oxobut-2-enoic acid], the half-life turned out to be 64 min. Same read-out and setting: as for `CCCCCCCC(=O)N[C@H](CN1CCCC1)[C@H](OC(=O)CCCC(=O)O)c1ccc2c(c1)OCCO2` [I-t, 5-((1R,2R)-1-(2,3-dihydrobenzo[b][1,4]dioxin-6-yl)-2-octanamido-3-(pyrrolidin-1-yl)propoxy)-5-oxopentanoic acid], the figure is 65 min. On the same count and under the same terms, next, `CCCCCCCC(=O)N[C@H](CN1CCCC1)[C@H](OC(=O)NC)c1ccc2c(c1)OCCO2` [I-u Hemitartrate salt, (1R,2R)-1-(2,3-dihydrobenzo[b][1,4]dioxin-6-yl)-2-octanamido-3-(pyrrolidin-1-yl)propyl methylcarbamate]: under 30 min. On the same count and under the same terms, next, `CCCCCCCC(=O)N[C@H](CN1CCCC1)[C@H](OC(=O)CN(C)C)c1ccc2c(c1)OCCO2` [I-w, (1R,2R)-1-(2,3-dihydrobenzo[b][1,4]dioxin-6-yl)-2-octanamido-3-(pyrrolidin-1-yl)propyl dimethylglycinate]: under 30 min.

Regarding `CCCCCCCC(=O)N[C@H](CN1CCCC1)[C@H](OC(=O)CCN1CCOCC1)c1ccc2c(c1)OCCO2` [I-x, (1R,2R)-1-(2,3-dihydrobenzo[b][1,4]dioxin-6-yl)-2-octanamido-3-(pyrrolidin-1-yl)propyl 3-morpholinopropanoate], the half-life was under 30 min. Still for that read-out and setting: as for `CCCCCCCC(=O)N[C@H](CN1CCCC1)[C@H](OC(=O)CC(=O)O)c1ccc2c(c1)OCCO2` [I-z, 3-((1R,2R)-1-(2,3-dihydrobenzo[b][1,4]dioxin-6-yl)-2-octanamido-3-(pyrrolidin-1-yl)propoxy)-3-oxopropanoic acid], the figure is over 90 min. On the same count and under the same terms, next, `CCCCCCCC(=O)N[C@H](CN1CCCC1)[C@H](OC(=O)COCCOCCOC)c1ccc2c(c1)OCCO2` [II-a, (1R,2R)-1-(2,3-dihydrobenzo[b][1,4]dioxin-6-yl)-2-octanamido-3-(pyrrolidin-1-yl)propyl 2-(2-(2-methoxyethoxy)ethoxy)acetate]: under 30 min; `CCCCCCCC(=O)N[C@H](CN1CCCC1)[C@H](OC(=O)CCOCCOCCN)c1ccc2c(c1)OCCO2` [II-b, (1R,2R)-1-(2,3-dihydrobenzo[b][1,4]dioxin-6-yl)-2-octanamido-3-(pyrrolidin-1-yl)propyl 3-(2-(2-aminoethoxy)ethoxy)propanoate]: over 90 min. On the same count and under the same terms, next, `CCCCCCCC(=O)N[C@H](CN1CCCC1)[C@H](OS(N)(=O)=O)c1ccc2c(c1)OCCO2` [IV-c, (1R,2R)-1-(2,3-dihydrobenzo[b][1,4]dioxin-6-yl)-2-octanamido-3-(pyrrolidin-1-yl)propyl sulfamate]: under 30 min. As for `CCCCCCCC(=O)N[C@H](CN1CCCC1)[C@H](OS(=O)(=O)O)c1ccc2c(c1)OCCO2` [IV-d, (1R,2R)-1-(2,3-dihydrobenzo[b][1,4]dioxin-6-yl)-2-octanamido-3-(pyrrolidin-1-yl)propyl hydrogen sulfate], the half-life was over 90 min.

The values above are taken from patent US11760741B2, “Pro-drugs of eliglustat” (KASHIV BIOSCIENCES, LLC, priority 2018, dated 2023).
